Experimental data reported in patent US5430058A, “Pharmaceutical compositions comprising hydroxamate derivatives for iron removal” (Yeda Research and Development Co. Ltd., priority 1993, dated 1995).

Tests used:
[1] = system: trophozoite cultures of P. falciparum; assay: Neutralization of drug induced inhibition by addition of iron(III); assay type: cell-based, Plasmodium falciparum; settings: stoichiometric addition of iron(III) salt / applied as iron(III)-complexes
Method: i. Neutralization of drug induced inhibition by addition of iron (III). Preformed ferric iron-carrier complexes were prepared by addition of increasing amounts of FeCl3 (in methanol) to a DMSO solution containing the indicated concentration of chelator. The mixtures were incubated for 1 hour at room temperature and added to microculture wells at the trophozoite stage at final concentrations of 30 μg/ml (for desferrioxamine) and 5 μg/ml (for reversed siderophores).
In order to assess this point, it was examined whether the reversed siderophores cause growth inhibition by virtue of iron deprivation (extraction at the level of the infected cell), as compared to formation of toxic iron complexes, the effect of chelator on trophozoite cultures was examined in the presence of increasing amounts of ferric salt. […] The concentration of drug used was the IC50 value depicted in Table 1. […] The complexes were evidently non-toxic to parasites, thus ruling out chelated iron-mediated lipid peroxidation as the modus of operandii of the drugs, a mechanism of antimalarial activity that has been proposed for other iron chelators. […]

Plasmodium falciparum = assay: Antimalarial activity, general comparison and statements; assay type: cell-based
Method: g. Bioassay of iron carrier antimalarial activity. The antimalarial activity was assayed by adding the compounds from concentrated stock solutions (in DMSO) to microcultures (24 wells, Costar) containing infected red cells (2.5% hematocrit and 2% parasitemia). The cultures were usually synchronized (4-7 hrs. windows) by incubation in 300 mM Ala, 10 mM TRIS-Cl in conjunction with gelatin flotation and used either at the trophozoite (1-2% parasitemia) or at the ring stage (4-6% parasitemia) of the erythrocyctic cycle. After the indicated time of incubation with drug and either previous to or after washing 3 times with 100 volumes growth medium, the cells were supplemented with 6 μCi of either [^3 H]-hypoxanthine or [^3 H]-Ileu (Amersham, England) per well and parasite growth assessed after 24-48 hours by harvesting the labelled cells onto glass-fiber filters (Tamar, Inc. Jerusalem) and counting of the radioactivity.
The antimalarial activity of the different chelators was initially evaluated on cultures of trophozoites which were exposed for 24 hours to different concentrations of chelators. Following that period, [^3 H]-hypoxanthine or [^3 H]-Ileu were added and 24 hours later the parasitemia and incorporation of label into macromolecular material was determined.

ferritin = assay: Effect on iron in ferritin; parameters: species or system horse; settings: after the same time of exposure
Method: Experimental testing of iron(III)-chelation properties RSF's were performed on human red blood cell lysates (normal and malaria parasitized), intact cells (4 hrs incubation times at 37° C.), free horse spleen ferritin (4-10 hrs at 37° C.) and ferritin-containing HEP-2 (human hepatoma) cells (4-10 hrs at 37° C.) using RSF1-ileu.

[2] = system: normal and infected red cells; assay: Distribution of 59Fe counts after uptake (80,000g lysate fractionation); assay type: cell-based, human; settings: 59Fe complex, lysates 80,000g×20 min
Method: (§1) k. Uptake of radioactive carrier-Fe complexes. DFO and the different SF derivatives were pre-complexed with iron by addition of concentrated stock solutions of 20 mg/ml carriers to ^59 FeCl3 (Amersham, England) in 0.5 ml of 150 mM NaCl, 10 mM Hepes at 3-5 molar excess of carrier for 1 hour at room temperature. To begin the flux, normal or parasitized red cells that had been washed 3 times in saline buffer and resuspended in the same buffer supplemented with 5% bovine serum albumin (BSA), 2.5 mM citrate, 2 mg/ml glucose were added to radioactive ^59 Fe-complexes at a final suspension of 20% hematocrit. After incubation at 37° C., 75 μl suspension was removed in duplicate aliquots for each time point, placed in plastic 15 ml test tube (Starstedt) and centrifuged 1 minute at 2,500 g. The supernatant was removed and the pellet immediately placed on ice. After all sampling was completed the pellets were washed twice in 15 ml of ice cold buffer containing 50 mM EDTA and lysed in distilled water. Radioactivity (Gamma emission, 700-1300 Kev) was counted and the cell number for each sample determined from hemoglobin absorption of the lysate at 410 nm.
Due to the fact that RSF's have markedly greater lipophilicity than DFO, they were expected to faster penetrate and therefore more effectively chelate intracellular iron after short exposure times. […]

normal red cells = assay: Uptake of 59Fe-carrier complexes into normal red cells; assay type: cell-based, human; settings: iron(III) complex, normal red cells
Method: as §1
Due to the fact that RSF's have markedly greater lipophilicity than DFO, they were expected to faster penetrate and therefore more effectively chelate intracellular iron after short exposure times. Penetration of RSF's into normal and infected red cells was estimated by monitoring uptake of the RSF's-^59 Fe(III) complexes into infected and uninfected cells and compared to DFO. In order to confirm actual uptake of Fe-RSF ileun2 rather than adsorption to the outer membrane, cells were thoroughly washed and lysates were subjected to 80,000g×20 min centrifugation. More than 90% of the total counts were found in the cytosol fraction (results not shown).
FIGS. 8a and 8b show uptake of Fe^59 -carrier complexes into normal and infected red cells. Uptake of ^59 -Fe-RSF (FIG. 8a) and ^59 Fe-DFO (FIG. 8b) into normal (open symbols) and infected (closed symbols) red cells (60% parasitemia, >90% trophozoites). The carriers were pre-complexed to ^59 FeCl3 at 4:1 ration in DMSO with 5 μM external FeCl3 (from methanolic stock solutions). The radioactive complexes were then added to 20% hematocrit cell suspensions and flux was measured. Specific activity was 485000 cpm/nmole and 369000 cpm/nmole for the RSF and DFO uptake experiments, respectively. Cell number was determined from hemoglobin absorption of lysate at 410 nm.

Compound | Effect of iron(III) on antimalarial activity [1] | Efficiency relative to DFO (Plasmodium falciparum; 24-48 hours exposure, various strains) | Speed of action relative to desferrioxamine (Plasmodium falciparum; faster acting than desferrioxamine) [fold] | Arrest of parasite growth (Plasmodium falciparum; infected red blood cells) | Potency relative to desferrioxamine (Plasmodium falciparum; more potent than desferrioxamine) [fold] | Effect on iron in ferritin (ferritin) | Total counts found in the cytosol fraction [2] | Time to maximum uptake (normal red cells) [min] | Maximum uptake level (normal red cells; 5 μM external Fe) [nmoles/10^10 cells] | Uptake t1/2 (normal red cells; 5 μM external Fe) [min]
CC(=O)N(O)CCCCCNC(=O)CCC(=O)N(O)CCCCCNC(=O)CCC(=O)N(O)CCCCCN [DFO, desferrioxamine B, reference compound] | fully averted their antimalarial activity | – | – | – | – | – | – | – | – | –
CC[C@H](C)[C@H](NC(=O)CCOCC(CC)(COCCC(=O)N[C@H](C(=O)N(C)O)[C@@H](C)CC)COCCC(=O)N[C@H](C(=O)N(C)O)[C@@H](C)CC)C(=O)N(C)O [SF1-ileu] | – | 6-13 fold | 20 | arresting parasite growth irreversibly within a few hours | 15 | not substantially affecting iron in ferritin | More than 90% | 10 to 15 | 4 | 2 to 3
